Test results from US4759917A, “Oxidative dissolution of gallium arsenide and separation of gallium from arsenic” (priority 1987, dated 1988).

Key:
[1] = Aqueous solubilities of N-alkylalkano and N-H hydroxamic acids (Table 1); type: physicochemical
From the text: It is desirable that the N-organo hydroxamic acid have low solubility in water in order to effect ready separation of the chelated gallium from the aqueous oxidizing medium.
For the extraction to occur, it is necessary that the extractant have some slight solubility in the aqueous Ga-containing medium.

[2] = Example 2: complexing agents with hydrogen peroxide to oxidize and dissolve gallium arsenide (Table 3)
[3] = Example 1: gallium recovery from Lap Sludge by simultaneous dissolution and separation
[4] = Solubility in a typical phosphate rock treater dust leachate; type: physicochemical; settings: leachate with high concentrations of Al, Zn, Fe, phosphate and other ions
From the text: It wlll be noted that most of the N-alkyl hydroxamic acids have very low solubilities in aqueous media, with the solubility tending to increase with decreasing number of carbon atoms in the hydroxamic acids. […] This appreciable but limited solubility appears responsible for the effectiveness of N-methylnonanohydroxamic acid in extracting Ga from such leachates, with regard to both rate and extent of the extraction compared to higher carbon number N-alkyl hydroxamic acids. For the extraction to occur, it is necessary that the extractant have some slight solubility in the aqueous Ga-containing medium.

[5] = Viscosity of hydroxamic acids; type: physicochemical; settings: neat, without a solvent
From the text: When a liquid hydroxamic acid compound is used, it can be used neat as the organic phase in the oxidation-dissolution reaction and the subsequent extraction-separation. However it will often be preferable to use an organic solvent as an extender, or to lower viscosity or lessen absorption or resulting losses of the hydroxamic acid, or to promote phase separation, and the organic phase often includes a liquid hydrocarbon solvent. Such solvent must be substantially water immiscible so as to be separable from the aqueous solutions containing the arsenic values. Suitable solvents include aliphatic and aromatic hydrocarbons such as kerosene, hexane, toluene, methylene chloride, chloroform, carbon tetrachloride, xylene, naphtha, cyclohexane, Chevron Ion Exchange solvent, Kermac 470-B. Solvesso 100 and the like. Kerosene and other low viscosity, high flash point petrolleum distillates are preferred. Generally, the hydroxamic compounds will be present in the organic phase in an amount of at least about 2% by weight. Preferably, the N-alkyl alkanohydroxamic compound will be present in the amount of 2 to 40%, more preferably about 10 to 35%, by weight based on the total organic phase. Viscosity and/or solubility serves to fix the upper limit of the content of said hydroxamic compound which will depend upon the structure of the compound employed. […]

[6] = 30% H2SO4 strip of organic phase
[7] = aqueous phase plus dilute nitric acid and other washes

Molecule | Solubility (25° C.) [1] | Solubility (25° C.), molarity [1] | % Ga in Solution After 4 Days [2] | effectiveness in reaction and dissolution of gallium arsenide ([2]; H2O2 as oxidizing agent) | As in combined aqueous acid stripping solutions [3, 6] | Ga in combined aqueous acid stripping solutions [3, 6] | As in combined aqueous phase and wash solutions [3, 7] | Ga in combined aqueous phase and wash solutions [3, 7] | arsenic and gallium in water washings of organic phase ([3]; detection limit less than 1 ppm for each element) | Ga recovered per gram of starting sludge ([3]; starting sludge 17.7 mg Ga/gram) | As recovered per gram of starting sludge ([3]; starting sludge analyzed 13.4 mg As/gram) | solubility in a typical phosphate rock treater dust leachate [4] | solubility in a typical phosphate rock treater dust leachate, molarity [4] | viscosity [5]
CCCCCCCCC(=O)N(C)O [N-methylnonanohydroxamic acid] | 409. ppm | 2.18 × 10^-3 molarity | 100% | effective complexing agent | 15 ppm | 1100 ppm | 2510 ppm | 114 ppm | Neither arsenic nor gallium was detectable | 17.8 mg Ga per gram | 17.3 mg As/gram | 20 ppm | 1.07×10^-4 molarity | –
N-methyl isostearohydroxamic acid | – | – | – | – | – | – | – | – | – | – | – | – | – | sufficiently low viscosity that they can be used neat
